Drawing on patent US20230062119A1, “USE OF BIOMARKERS IN IDENTIFYING PATIENTS THAT WILL BE RESPONSIVE TO TREATMENT WITH A PRMT5 INHIBITOR” (Merck Sharp & Dohme LLC, priority 2019, published 2023), this text covers EC50 for 19 molecules.

The target of one assay is T1, Full-length (FL)-PRMT5-MEP50 enzyme complex (Homo sapiens, UniProt O14744).
T1 construct: Full-length (FL)-PRMT5-MEP50 enzyme complex (recombinant proteins from baculovirus-transfected Sf21 cells: FL-PRMT5; MW=73837 kDa and FL-MEP50; MW=38614); made in house; host or cells: baculovirus-transfected Sf21 insect cells
T1 sequence (O14744 whole entry): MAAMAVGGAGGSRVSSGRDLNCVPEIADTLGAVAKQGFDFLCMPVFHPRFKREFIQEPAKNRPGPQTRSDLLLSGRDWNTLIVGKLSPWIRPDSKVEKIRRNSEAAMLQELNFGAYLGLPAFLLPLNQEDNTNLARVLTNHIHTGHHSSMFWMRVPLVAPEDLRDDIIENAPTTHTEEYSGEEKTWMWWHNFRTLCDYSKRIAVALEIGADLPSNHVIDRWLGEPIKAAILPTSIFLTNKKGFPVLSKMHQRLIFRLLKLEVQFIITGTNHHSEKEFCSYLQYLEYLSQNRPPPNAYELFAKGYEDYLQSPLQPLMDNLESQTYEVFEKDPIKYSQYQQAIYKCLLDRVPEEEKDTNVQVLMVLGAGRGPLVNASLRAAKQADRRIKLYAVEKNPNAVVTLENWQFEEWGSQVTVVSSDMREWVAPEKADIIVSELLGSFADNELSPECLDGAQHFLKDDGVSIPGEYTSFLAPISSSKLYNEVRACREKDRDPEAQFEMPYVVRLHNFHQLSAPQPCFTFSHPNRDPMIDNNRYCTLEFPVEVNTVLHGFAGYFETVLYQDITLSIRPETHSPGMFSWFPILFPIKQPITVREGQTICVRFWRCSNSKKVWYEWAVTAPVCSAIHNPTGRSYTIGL
T1 sequence (Q9BQA1 whole entry partner): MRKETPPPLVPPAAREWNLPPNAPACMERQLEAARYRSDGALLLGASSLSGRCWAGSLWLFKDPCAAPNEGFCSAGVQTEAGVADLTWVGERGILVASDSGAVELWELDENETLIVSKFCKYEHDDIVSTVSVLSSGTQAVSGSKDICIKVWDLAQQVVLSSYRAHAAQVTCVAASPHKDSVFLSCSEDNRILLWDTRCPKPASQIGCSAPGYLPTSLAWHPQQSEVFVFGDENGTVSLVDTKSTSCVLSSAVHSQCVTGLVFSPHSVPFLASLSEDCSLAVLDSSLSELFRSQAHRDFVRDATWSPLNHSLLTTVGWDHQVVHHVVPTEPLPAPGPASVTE
Nature of the assay: PRMT5-MEP50 Enzyme Methylation Assay. It is filed as biochemical. To be noted: one EC50: 4 parameters single site sigmoidal model; EC50 1: first value of 7 parameters biphasic model; 1.0 nM PRMT5-MEP50, 75 nM biotinylated peptide, 15 μM SAM; read-out: Enzyme Methylation Assay (EC50 or EC50 1). Here is the method:
PRMT5-MEP50 biochemical assay is a direct measurement of the methylation activity of the enzyme complex on a short peptide substrate derived from the N-terminus of H4 histone. Methylation experiment is performed with recombinant PRMT5-MEP50 protein complex. The assessment of inhibitory effect of small molecules is measured by the effectiveness of the compounds to inhibit this reaction (EC50).
In this assay, the potency (EC50) of each compound was determined from a twenty-point (1:2 serial dilution; top compound concentration of 100000 nM) titration curve using the following outlined procedure. To each well of a white ProxiPlus 384 well-plate, 100 nL of compound (1% DMSO in final assay volume of 10 μL) was dispensed, followed by the addition of 8 μL of 1× assay buffer (50 mM Bicine pH 8.0, 1 mM DTT, 0.004% Tween20, 0.01% BSA) containing 1.25 nM of Full-length (FL)-PRMT5-MEP50 enzyme complex (recombinant proteins from baculovirus-transfected Sf21 cells: FL-PRMT5; MW=[…] and FL-MEP50; MW=38614) and 1 μL of 150 μM S-(5′-Adenosyl)-L-Methionine Chloride (SAM). Plates were sealed and placed in a 37° C. humidified chamber for a 60 minutes pre-incubation with compound. Subsequently, each reaction was initiated by the addition of 1 μL 1× assay buffer containing 750 nM biotinylated H4R3(Mel) peptide. The final reaction in each well of 10 μL consists of 1.0 nM PRMT5-MEP50, 75 nM biotinylated-peptide, and 15 μM SAM. Methylation reactions proceeded for 150 minutes in a sealed plate at 37° C. Reactions were immediately quenched by the addition of 1 μL of 5% formic acid. Plates were then frozen and shipped to SAMDI™ Tech Inc. to determine the percent conversion from H4R3(Mel) to H4R3(Me2). Dose-response curves were generated by plotting percent effect (% product conversion; Y-axis) vs. Log 10 compound concentrations (X-axis). EC50 values were determined by non-linear regression according to models for either sigmoidal (4 parameters) or biphasic (7 parameters) dose-response curves.
Usually EC50 stands for the concentration at which the effect is half-maximal. For the molecule `Cc1cn([C@@H]2C[C@@H]3[C@H](Cc4ccc5cc(Cl)c(N)nc5c4)CC[C@]3(O)[C@H]2O)c2ncnc(N)c12` [Example 39, (1S,2R,3aR,4S,6aR)-4-((2-amino-3-chloroquinolin-7-yl)methyl)-2-(4-amino-5-methyl-7H-pyrrolo[2,3-d]pyrimidin-7-yl)hexahydropentalene-1,6a(1H)-diol], the half-maximal effective concentration (EC50) amounted to 0.3 nM. The same measure, in the same setting: as for `Cc1cn([C@@H]2C[C@@H]3[C@H](Cc4ccc5cc(Br)c(N)nc5c4)CC[C@]3(O)[C@H]2O)c2ncnc(N)c12` [Example 40, (1S,2R,3aR,4S,6aR)-4-((2-amino-3-bromoquinolin-7-yl)methyl)-2-(4-amino-5-methyl-7H-pyrrolo[2,3-d]pyrimidin-7-yl)hexahydropentalene-1,6a(1H)-diol], the figure is 0.4 nM; as for `Nc1nc2cc(C[C@@H]3CC[C@@]4(O)[C@@H]3C[C@@H](n3ccc5c(N)ncnc53)[C@@H]4O)ccc2cc1Br` [Example 41, (1S,2R,3aR,4S,6aR)-4-((2-amino-3-bromoquinolin-7-yl)methyl)-2-(4-amino-7H-pyrrolo[2,3-d]pyrimidin-7-yl)hexahydropentalene-1,6a(1H)-diol 2,2,2-trifluoroacetate], 0.7 nM; as for `Nc1nc2cc(C[C@@H]3CC[C@@]4(O)[C@@H]3C[C@@H](n3cc(F)c5c(N)ncnc53)[C@@H]4O)ccc2cc1Br` [Example 42, (1S,2R,3aR,4S,6aR)-4-((2-amino-3-bromoquinolin-7-yl)methyl)-2-(4-amino-5-fluoro-7H-pyrrolo[2,3-d]pyrimidin-7-yl)hexahydropentalene-1,6a(1H)-diol], 0.3 nM. The same measure, in the same setting: as for `Nc1nc2cc(C[C@@H]3CC[C@@]4(O)[C@@H]3O[C@@H](n3cc(C(F)F)c5c(N)ncnc53)[C@@H]4O)ccc2cc1Br` [Example 43, (2R,3R,3aS,6S,6aR)-6-[(2-amino-3-bromoquinolin-7-yl)methyl]-2-[4-amino-5-(difluoromethyl)-7H-pyrrolo[2,3-d]pyrimidin-7-yl]hexahydro-3aH-cyclopenta[b]furan-3,3a-diol], the figure is 0.4 nM. Consider `Cc1nc(N)c2c(F)cn([C@@H]3O[C@@H]4[C@H](Cc5ccc6cc(F)c(N)nc6c5)CC[C@]4(O)[C@H]3O)c2n1` [Example 44, (2R,3R,3aS,6S,6aR)-6-((2-amino-3-fluoroquinolin-7-yl)methyl)-2-(4-amino-5-fluoro-2-methyl-7H-pyrrolo[2,3-d]pyrimidin-7-yl)hexahydro-3aH-cyclopenta[b]furan-3,3a-diol 2,2,2-trifluoroacetate], for which the EC50 came to 0.4 nM. The same measure, in the same setting: then `Nc1nc2cc(C[C@@H]3CC[C@@]4(O)[C@@H]3O[C@@H](n3ccc5c(N)nc(F)nc53)[C@@H]4O)ccc2cc1F` [Example 45, (2R,3R,3aS,6S,6aR)-2-(4-amino-2-fluoro-7H-pyrrolo[2,3-d]pyrimidin-7-yl)-6-((2-amino-3-fluoroquinolin-7-yl)methyl)hexahydro-3aH-cyclopenta[b]furan-3,3a-diol], with 0.3 nM. For the molecule `Nc1nc2cc(C[C@@H]3CC[C@@]4(O)[C@@H]3O[C@@H](n3ccc5c(N)nc(Cl)nc53)[C@@H]4O)ccc2cc1Cl` [Example 47, (2R,3R,3aS,6S,6aR)-2-(4-amino-2-chloro-7H-pyrrolo[2,3-d]pyrimidin-7-yl)-6-[(2-amino-3-chloroquinolin-7-yl)methyl]hexahydro-3aH-cyclopenta[b]furan-3,3a-diol], the EC50 is 0.2 nM. Same read-out and setting: then `Nc1nc2cc(C[C@@H]3CC[C@@]4(O)[C@@H]3O[C@@H](n3ccc5c(N)nc(Cl)nc53)[C@@H]4O)ccc2cc1F` [Example 48, (2R,3R,3aS,6S,6aR)-2-(4-amino-2-chloro-7H-pyrrolo[2,3-d]pyrimidin-7-yl)-6-[(2-amino-3-fluoroquinolin-7-yl)methyl]hexahydro-3aH-cyclopenta[b]furan-3,3a-diol], with 0.5 nM; and `Nc1nc2cc(O[C@H]3CC[C@@]4(O)[C@@H]3O[C@@H](n3cc(-c5ccccc5)c5c(N)ncnc53)[C@@H]4O)ccc2cc1Br` [Example 49, (2R,3R,3aS,6S,6aR)-6-[(2-amino-3-bromoquinolin-7-yl)oxy]-2-(4-amino-5-phenyl-7H-pyrrolo[2,3-d]pyrimidin-7-yl)hexahydro-3aH-cyclopenta[b]furan-3,3a-diol], with 0.5 nM. Consider `Nc1nc2cc(C[C@@H]3CC[C@@]4(O)[C@@H]3O[C@@H](n3cc(C(F)F)c5c(N)ncnc53)[C@@H]4O)ccc2cc1F` [Example 51, (2R,3R,3aS,6S,6aR)-2-[4-amino-5-(difluoromethyl)-7H-pyrrolo[2,3-d]pyrimidin-7-yl]-6-[(2-amino-3-fluoroquinolin-7-yl)methyl]hexahydro-3aH-cyclopenta[b]furan-3,3a-diol], for which the EC50 was found to be 1.2 nM. As to `Nc1nc2cc(O[C@H]3CC[C@@]4(O)[C@@H]3O[C@@H](n3cc(C5CC5)c5c(N)ncnc53)[C@@H]4O)ccc2cc1Br` [Example 52, (2R,3R,3aS,6S,6aR)-6-[(2-amino-3-bromoquinolin-7-yl)oxy]-2-(4-amino-5-cyclopropyl-7H-pyrrolo[2,3-d]pyrimidin-7-yl)hexahydro-3aH-cyclopenta[b]furan-3,3a-diol], the EC50 is 0.5 nM. Still for that read-out and setting: then `Nc1nc2cc(C[C@H]3[C@H]4O[C@@H](n5ccc6c(N)ncnc65)[C@H](O)[C@@]4(O)CC3(F)F)ccc2cc1F` [Example 53, (2R,3R,3aS,6S,6aR)-6-[(2-amino-3-fluoroquinolin-7-yl)methyl]-2-(4-amino-7H-pyrrolo[2,3-d]pyrimidin-7-yl)-5,5-difluorohexahydro-3aH-cyclopenta[b]furan-3,3a-diol], with 0.3 nM.

As for `Nc1nc2cc(C[C@H]3[C@H]4O[C@@H](n5ccc6c(N)ncnc65)[C@H](O)[C@@]4(O)C[C@@H]3F)ccc2cc1F` [Example 54, (2R,3R,3aS,5S,6S,6aR)-6-[(2-amino-3-fluoroquinolin-7-yl)methyl]-2-(4-amino-7H-pyrrolo[2,3-d]pyrimidin-7-yl)-5-fluorohexahydro-3aH-cyclopenta[b]furan-3,3a-diol], the EC50 was found to be 0.3 nM.

With `Nc1nc2cc(C[C@H]3[C@H]4O[C@@H](n5cc(F)c6c(N)ncnc65)[C@H](O)[C@@]4(O)C[C@@H]3F)ccc2cc1F` [Example 55, (2R,3R,3aS,5S,6S,6aR)-2-(4-amino-5-fluoro-7H-pyrrolo[2,3-d]pyrimidin-7-yl)-6-[(2-amino-3-fluoroquinolin-7-yl)methyl]-5-fluorohexahydro-3aH-cyclopenta[b]furan-3,3a-diol, 2,2,2-trifluoroethanol], the EC50 came out at 0.5 nM. Same read-out and setting: as for `Nc1nc2cc(O[C@H]3CC[C@@]4(O)[C@@H]3O[C@@H](n3cc(F)c5c(N)ncnc53)[C@@H]4O)ccc2cc1Br` [Example 56, (2R,3R,3aS,6S,6aR)-6-((2-amino-3-bromoquinolin-7-yl)oxy)-2-(4-amino-5-fluoro-7H-pyrrolo[2,3-d]pyrimidin-7-yl)hexahydro-3aH-cyclopenta[b]furan-3,3a-diol], the figure is 0.2 nM; as for `Nc1ncnc2c1ccn2[C@@H]1O[C@@H]2[C@@H](Oc3ccc4ccc(NCC(F)(F)F)nc4c3)CC[C@]2(O)[C@H]1O` [Example 57, (2R,3R,3aS,6S,6aR)-2-(4-amino-7H-pyrrolo[2,3-d]pyrimidin-7-yl)-6-((2-((2,2,2-trifluoroethyl)amino)quinolin-7-yl)oxy)hexahydro-3aH-cyclopenta[b]furan-3,3a-diol], 0.7 nM; as for `Nc1ncnc2c1ccn2[C@@H]1O[C@@H]2[C@@H](Oc3ccc4ccc(NCC5CC5)nc4c3)CC[C@]2(O)[C@H]1O` [Example 58, (2R,3R,3aS,6S,6aR)-2-(4-amino-7H-pyrrolo[2,3-d]pyrimidin-7-yl)-6-((2-((cyclopropylmethyl)amino)quinolin-7-yl)oxy)hexahydro-3aH-cyclopenta[b]furan-3,3a-diol], 0.4 nM. For `Nc1nc2cc(C[C@@H]3CC[C@@]4(O)[C@@H]3O[C@@H](n3cc(F)c5c(N)ncnc53)[C@@H]4O)ccc2cc1F` [Example 59, (2R,3R,3aS,6S,6aR)-6-((2-amino-3-fluoroquinolin-7-yl)methyl)-2-(4-amino-5-fluoro-7H-pyrrolo[2,3-d]pyrimidin-7-yl)hexahydro-3aH-cyclopenta[b]furan-3,3a-diol], the EC50 amounted to 0.6 nM.

The same assay, now with this note: second EC50 of 7 parameters biphasic model; 1.0 nM PRMT5-MEP50, 75 nM biotinylated peptide, 15 μM SAM; read-out: Enzyme Methylation Assay (EC50 2).
Regarding `Nc1nc2cc(C[C@H]3[C@H]4O[C@@H](n5cc(F)c6c(N)ncnc65)[C@H](O)[C@@]4(O)C[C@@H]3F)ccc2cc1F` [Example 55, (2R,3R,3aS,5S,6S,6aR)-2-(4-amino-5-fluoro-7H-pyrrolo[2,3-d]pyrimidin-7-yl)-6-[(2-amino-3-fluoroquinolin-7-yl)methyl]-5-fluorohexahydro-3aH-cyclopenta[b]furan-3,3a-diol, 2,2,2-trifluoroethanol], the EC50 worked out at 191 nM.

For the molecule `Nc1ncnc2c1ccn2[C@@H]1O[C@@H]2[C@@H](Oc3ccc4ccc(NCC(F)(F)F)nc4c3)CC[C@]2(O)[C@H]1O` [Example 57, (2R,3R,3aS,6S,6aR)-2-(4-amino-7H-pyrrolo[2,3-d]pyrimidin-7-yl)-6-((2-((2,2,2-trifluoroethyl)amino)quinolin-7-yl)oxy)hexahydro-3aH-cyclopenta[b]furan-3,3a-diol], the EC50 came out at 143 nM.
